Patent publication US10434135B2, “Pharmaceutical composition for preventing or treating arthritis” (Samsung Life Public Welfare Foundation, priority 2015, dated 2019)
Ends that are not written are not given here.

Conditions: rat, in vivo
Excerpt: The stained samples were examined under a fluorescence microscope (Eclipse TE2000U) at 200× magnification and photographed from 4 randomly selected areas. Then, the images with specific expressions were processed using the imageJ program and then quantified.

KLDLKLDLKLDLRPKPQQFFGLM [KLD12-SP]
substance P retained in the knee joints: retained in the knee joints of rats
